IC50 data for seven compounds are collected here from patent US10759785B2, “Compounds” (ENTERPRISE THERAPEUTICS LIMITED, priority 2016, dated 2020).

Where a name gives a salt, the structure may show the parent alone.

A word on the IC50: it is the concentration that gives 50% inhibition.

The experiment concerns the target T1, ENaC (Homo sapiens, UniProt P37088+P51168+P51170).
T1 construct: host or cells: primary human bronchial epithelial cells (HBECs) differentiated at an air-liquid interface
T1 sequence (P37088 1-669): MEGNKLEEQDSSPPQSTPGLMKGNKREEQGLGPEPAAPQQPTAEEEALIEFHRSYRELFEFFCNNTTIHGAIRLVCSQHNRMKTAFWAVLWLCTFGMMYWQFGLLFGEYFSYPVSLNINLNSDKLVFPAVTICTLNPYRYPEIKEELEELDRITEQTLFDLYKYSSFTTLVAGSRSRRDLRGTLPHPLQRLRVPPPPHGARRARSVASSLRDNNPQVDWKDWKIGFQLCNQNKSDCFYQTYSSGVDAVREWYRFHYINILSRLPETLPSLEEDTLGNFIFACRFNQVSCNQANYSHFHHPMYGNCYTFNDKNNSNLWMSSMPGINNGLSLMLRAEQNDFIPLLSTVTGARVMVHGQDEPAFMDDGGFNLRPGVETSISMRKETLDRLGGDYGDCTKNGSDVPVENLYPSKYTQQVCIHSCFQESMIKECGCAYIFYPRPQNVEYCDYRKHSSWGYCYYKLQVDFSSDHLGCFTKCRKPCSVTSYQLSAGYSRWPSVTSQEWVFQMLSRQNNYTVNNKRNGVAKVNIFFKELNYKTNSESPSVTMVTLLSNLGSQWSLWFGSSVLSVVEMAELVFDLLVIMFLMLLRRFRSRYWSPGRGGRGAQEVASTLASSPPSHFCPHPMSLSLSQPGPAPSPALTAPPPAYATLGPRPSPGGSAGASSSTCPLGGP
T1 sequence (P51168 1-640): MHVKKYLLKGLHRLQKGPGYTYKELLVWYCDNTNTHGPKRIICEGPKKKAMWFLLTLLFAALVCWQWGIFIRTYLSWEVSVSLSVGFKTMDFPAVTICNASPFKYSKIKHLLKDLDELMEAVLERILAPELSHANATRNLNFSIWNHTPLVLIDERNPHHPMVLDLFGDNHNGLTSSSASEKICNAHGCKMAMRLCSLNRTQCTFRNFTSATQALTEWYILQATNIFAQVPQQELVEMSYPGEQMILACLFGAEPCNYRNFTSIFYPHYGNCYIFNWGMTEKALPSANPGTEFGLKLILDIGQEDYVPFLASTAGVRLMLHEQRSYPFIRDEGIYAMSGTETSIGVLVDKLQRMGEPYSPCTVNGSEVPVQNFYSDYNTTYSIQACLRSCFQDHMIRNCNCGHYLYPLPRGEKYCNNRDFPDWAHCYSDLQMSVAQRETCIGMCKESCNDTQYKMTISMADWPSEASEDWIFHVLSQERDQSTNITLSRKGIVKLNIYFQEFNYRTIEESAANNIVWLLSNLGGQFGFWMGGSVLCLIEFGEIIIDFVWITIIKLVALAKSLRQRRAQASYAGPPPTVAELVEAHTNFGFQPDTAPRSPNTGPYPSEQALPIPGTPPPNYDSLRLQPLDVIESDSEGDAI
T1 sequence (P51170 1-649): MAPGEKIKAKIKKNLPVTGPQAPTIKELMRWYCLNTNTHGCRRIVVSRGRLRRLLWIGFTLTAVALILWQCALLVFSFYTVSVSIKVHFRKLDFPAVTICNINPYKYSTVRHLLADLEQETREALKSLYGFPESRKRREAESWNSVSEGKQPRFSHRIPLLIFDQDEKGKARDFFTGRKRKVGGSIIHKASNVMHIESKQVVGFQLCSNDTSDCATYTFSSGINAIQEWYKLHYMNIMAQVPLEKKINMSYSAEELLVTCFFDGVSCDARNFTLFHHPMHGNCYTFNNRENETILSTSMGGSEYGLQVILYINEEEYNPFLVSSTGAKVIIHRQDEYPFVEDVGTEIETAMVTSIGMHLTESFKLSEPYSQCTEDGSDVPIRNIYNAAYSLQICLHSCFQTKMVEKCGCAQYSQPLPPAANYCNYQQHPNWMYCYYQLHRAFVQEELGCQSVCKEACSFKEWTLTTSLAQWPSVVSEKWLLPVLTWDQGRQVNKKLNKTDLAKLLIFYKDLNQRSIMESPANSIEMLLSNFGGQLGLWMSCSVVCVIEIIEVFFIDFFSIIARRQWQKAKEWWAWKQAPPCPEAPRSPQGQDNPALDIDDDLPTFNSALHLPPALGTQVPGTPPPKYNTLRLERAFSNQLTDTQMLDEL
Nature of the experiment: Short circuit current assay to determine ENaC blocker potency in human bronchial epithelial cells. Particulars: 50% inhibition of total amiloride-sensitive ISC, HBECs, apical addition; read-out: Averages. ENaC Ic50 μm Avg. The class given is cell-based. The procedure: Example 27—Short Circuit Current Assay to Determine ENaC Blocker Potency in Human Bronchial Epithelial Cells
Human bronchial epithelial cells (HBECs) (Lonza, UK) were cultured using a modification of the method described by Coote et al, (2008). Cells were seeded into plastic T-75 flasks and grown in Bronchial Epithelial Cell Growth Medium (BEGM) (Lonza, UK) supplemented with bovine pituitary extract (52 ng/mL), hydrocortisone (0.5 μg/mL), human recombinant Epidermal Growth Factor (0.5 ng/mL), epinephrine (0.5 ng/mL), transferrin (10 ng/mL), insulin (5 ng/mL), retinoic acid (0.1 ng/mL), triiodothyronine (6.5 ng/mL), gentamycin (50 μg/mL) and amphotericin-B (50 ng/mL). Medium was changed every 48 hours until cells were 90% confluent. Cells were then passaged and seeded (8.25×10^5 cells/insert) onto polycarbonate Snapwell™ inserts (Costar, UK) in differentiation media containing 50% DMEM in BGEM with the same supplements as above but without triiodothyronine and a final retinoic acid concentration of 50 nM (all-trans retinoic acid; Sigma-Aldrich, UK). Cells were maintained submerged for the first 7 days in culture after which time they were exposed to an apical air interface for the remainder of the culture period. From the first day of establishment of an ALI, HBEC were fed with a DMEM:HAMS F-12 (1:1) media containing 2% Ultroser G (Pall BioSepra, France) with gentamycin (50 μg/mL) and amphotericin B (50 ng/mL). Cells were used for short-circuit current assay between days 14-21 after the establishment of the ALI. At all stages of culture, cells were maintained at 37′C in 5% CO2 in an air incubator.
Short-Circuit Current (ISC) Measurements
Snapwell inserts were mounted in Costar Vertical Diffusion Chambers (Costar, UK) and were bathed with continuously gassed Ringer solution (5% CO2 in O2; pH 7.4) maintained at 37° C. containing (in mM): 120 NaCl, 25 NaHCO3, 3.3 KH2PO4, 0.8 K2HPO4, 1.2 CaCl2, 1.2 MgCl2 and 10 glucose. The solution osmolarity was always between 280-300 mOsm/kg H2O for all physiological salt solutions used. Cells were voltage clamped to 0 mV (model EVC4000, WPI). Transepithelial resistance (RT) was measured by applying a 2 mV pulse at 30 s intervals and calculating RT by Ohm's law. Data were recorded using a PowerLab workstation (ADInstruments, UK).
ENaC blocker compounds were added to the apical chamber from a 1000-fold stock solution (prepared in DMSO) to achieve a cumulative concentration response in terms of the inhibition of the basal ISC. At the completion of the concentration response, a supra-maximal concentration of amiloride (10 μM) was added. The concentration of test compound that induced a 50% inhibition of the total amiloride-sensitive ISC (IC50) was calculated using GraphPad Prism v6.05.
As to `CCn1c(CNC(=O)c2nc(Br)cnc2N)[n+](CC)c2ccc(-c3cnn(C4CCN(C(=O)OC(C)(C)C)CC4)c3)cc21.[I-]` [Example 20, 2-{[(3-amino-6-bromopyrazin-2-yl)formamido]methyl}-6-(1-{1-[(tert-butoxy)carbonyl]piperidin-4-yl}-1H-pyrazol-4-yl)-1,3-diethyl-1H-1,3-benzodiazol-3-ium iodide], the 50% inhibitory concentration (IC50) was found to be 1 nM.
`CCn1c(CNC(=O)c2nc(Br)cnc2N)[n+](CC)c2ccc(-c3cnn(C4CCNCC4)c3)cc21.Cl.[I-]` [Example 21, 2-{[(3-amino-6-bromopyrazin-2-yl)formamido]methyl}-1,3-diethyl-6-[1-(piperidin-4-yl)-1H-pyrazol-4-yl]-1H-1,3-benzodiazol-3-ium hydrochloride iodide]: the IC50 came to 1 nM.
Take `CCn1c(CNC(=O)c2nc(Br)cnc2N)[n+](CC)c2ccc(-c3cnn(C4CCN(C(=N)N)CC4)c3)cc21.O=CO.O=C[O-]` [Example 22, 2-{[(3-amino-6-bromopyrazin-2-yl)formamido]methyl}-6-[1-(1-carbamimidoylpiperidin-4-yl)-1H-pyrazol-4-yl]-1,3-diethyl-1H-1,3-benzodiazol-3-ium formic acid formate]: the half-inhibitory concentration (IC50) turned out to be 2 nM.
In the case of `CCn1c(CNC(=O)c2nc(Br)cnc2N)[n+](CC)c2ccc(-c3cnn(C4CCN(C[C@H](O)[C@@H](O)[C@H](O)[C@H](O)CO)CC4)c3)cc21.O=CO.[Cl-]` [Example 23, 2-{[(3-amino-6-bromopyrazin-2-yl)formamido]methyl}-1,3-diethyl-6-(1-{1-[(2S,3R,4R,5R)-2,3,4,5,6-pentahydroxyhexyl]piperidin-4-yl}-1H-pyrazol-4-yl)-1H-1,3-benzodiazol-3-ium formic acid chloride], the IC50 was 2 nM.
As for `CCn1c(CNC(=O)c2nc(Br)cnc2N)[n+](CC)c2ccc(OCCNC(=O)OC(C)(C)C)cc21.O=C[O-]` [Example 24, 2-{[(3-amino-6-bromopyrazin-2-yl)formamido]methyl}-6-(2-{[(tert-butoxy)carbonyl]amino}ethoxy)-1,3-diethyl-1H-1,3-benzodiazol-3-ium formate], the concentration for half-maximal inhibition (IC50) was determined as 2 nM.
The figure for `CCn1c(CNC(=O)c2nc(Br)cnc2N)[n+](CC)c2ccc(OCCN)cc21.Cl.[Cl-]` [Example 25, 2-{[(3-Amino-6-bromopyrazin-2-yl)formamido]methyl}-6-(2-aminoethoxy)-1,3-diethyl-1H-1,3-benzodiazol-3-ium hydrochloride chloride] is 2 nM; for `CCn1c(CNC(=O)c2nc(C#N)cnc2N)[n+](CC)c2ccc(OC)cc21` [Example 26, 2-{[(3-amino-6-cyanopyrazin-2-yl)formamido]methyl}-1,3-diethyl-6-methoxy-1H-1,3-benzodiazol-3-ium formate] it is 8 nM.
